Measured values taken from US9062041B2 (Bayer Intellectual Property GmbH, priority 2011, dated 2015).

How the values were obtained:
Type in all cases: cell-based
[1] = biological target: EP4 subtype of the human PGE2 receptor (Homo sapiens, UniProt P35408); test: cAMP antagonism test on the human EP4 receptor (HTRF cAMP detection); conditions: selectivity towards hEP4, IC50 measured by cAMP antagonism test
Outline: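 Cells expressing human EP4 preincubated 20 min at RT with compound (0.8 nM–16.5 μM), then stimulated with PGE2 (0.3 nM in 3× solution, with IBMX) 60 min at RT. After lysis, cAMP measured by HTRF competition (665/620 nm ratio); antagonism seen as rise in FRET signal.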

human PGD receptor = biological target: T1, human PGD receptor (Homo sapiens, UniProt Q13258); test: cAMP antagonism test on the human prostaglandin D receptor (HTRF cAMP detection); conditions: selectivity towards hDP, IC50 measured by cAMP antagonism test
T1 sequence (Q13258 1-359): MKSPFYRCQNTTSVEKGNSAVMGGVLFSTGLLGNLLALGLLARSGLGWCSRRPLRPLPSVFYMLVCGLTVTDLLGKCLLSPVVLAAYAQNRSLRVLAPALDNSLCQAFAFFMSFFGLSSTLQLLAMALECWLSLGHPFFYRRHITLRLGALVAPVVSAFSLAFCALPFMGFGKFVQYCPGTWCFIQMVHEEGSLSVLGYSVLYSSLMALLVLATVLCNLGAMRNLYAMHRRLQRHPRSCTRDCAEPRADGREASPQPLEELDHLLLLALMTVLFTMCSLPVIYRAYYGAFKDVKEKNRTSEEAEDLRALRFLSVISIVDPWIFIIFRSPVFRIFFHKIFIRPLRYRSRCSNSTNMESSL
Outline: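 Cells pre-mixed with cAMP-d2 were preincubated with compound (0.8 nM–16.5 μM) for 20 min at RT, then stimulated with 3× PGD2 solution (6 nM, in PBS-IBMX) for 30 min at RT. After lysis (20 min), HTRF read at 665/620 nm; antagonism seen as rise in FRET ratio.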

[2] = biological target: EP2 subtype of the human PGE2 receptor (Homo sapiens, UniProt P43116); test: cAMP antagonism test on the human EP2 receptor (HTRF cAMP detection); conditions: hEP2 receptor, read-out: Antagonism hEP2 IC50
Outline: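 Cells expressing human EP2 preincubated 20 min at RT with compound (0.8 nM–16.5 μM), then stimulated 60 min with PGE2 (3× solution 1.5 nM) in PBS-IBMX. After 20 min lysis, cAMP measured by competitive HTRF with cAMP-d2 and Eu cryptate anti-cAMP antibody (665/620 nm ratio).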

EP4 subtype of the human PGE2 receptor, sequence (P35408 whole entry): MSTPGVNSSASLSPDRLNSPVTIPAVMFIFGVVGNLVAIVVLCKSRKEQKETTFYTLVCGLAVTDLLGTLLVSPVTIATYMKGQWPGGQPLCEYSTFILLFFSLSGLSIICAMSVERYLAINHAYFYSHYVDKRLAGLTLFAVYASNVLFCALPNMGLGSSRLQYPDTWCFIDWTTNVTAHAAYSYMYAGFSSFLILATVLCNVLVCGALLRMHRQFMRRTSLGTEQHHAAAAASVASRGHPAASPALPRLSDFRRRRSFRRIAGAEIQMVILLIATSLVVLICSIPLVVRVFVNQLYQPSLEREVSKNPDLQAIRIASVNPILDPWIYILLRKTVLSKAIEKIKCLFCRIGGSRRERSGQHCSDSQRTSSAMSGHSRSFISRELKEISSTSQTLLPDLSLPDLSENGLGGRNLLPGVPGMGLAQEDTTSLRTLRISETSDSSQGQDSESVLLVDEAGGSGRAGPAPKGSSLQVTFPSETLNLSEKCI
EP2 subtype of the human PGE2 receptor, sequence (P43116 whole entry): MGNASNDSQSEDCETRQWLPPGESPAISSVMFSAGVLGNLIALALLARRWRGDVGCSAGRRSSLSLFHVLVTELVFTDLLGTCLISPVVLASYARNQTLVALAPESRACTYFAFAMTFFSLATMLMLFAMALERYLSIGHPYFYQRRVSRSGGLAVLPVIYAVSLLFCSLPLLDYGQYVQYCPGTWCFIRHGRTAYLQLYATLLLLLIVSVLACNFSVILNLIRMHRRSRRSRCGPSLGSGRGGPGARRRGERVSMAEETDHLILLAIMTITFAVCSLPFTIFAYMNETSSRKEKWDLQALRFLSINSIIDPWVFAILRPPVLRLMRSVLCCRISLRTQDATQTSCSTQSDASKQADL

SMILES	Selectivity hEP2/hEP4 [1]	Selectivity hEP2/hDP (human PGD receptor)	IC50 [2]
Cc1c(C(=O)NCCOCC(F)(F)F)ccc2nn(CC3CN(C(=O)c4ccc(Cl)cc4)C3)cc12 [Example 162, 2-{[1-(4-chlorobenzoyl)azetidin-3-yl]methyl}-4-methyl-N-[2-(2,2,2-trifluoro-ethoxy)ethyl]-2H-indazol-5-carboxamide]	xxx (xxx > 100)	xxx (xxx > 100)	9.33 nM
Cc1c(C(=O)NCCOC2CCC2)ccc2nn(CC3CN(C(=O)c4ccc(OC(F)(F)F)cc4)C3)cc12 [Example 137, N-[2-(cyclobutyloxy)ethyl]-4-methyl-2-({1-[4-(trifluoromethoxy)benzoyl]azetidin-3-yl}methyl)-2H-indazol-5-carboxamide]	xxx (xxx > 100)	xxx (xxx > 100)	7.65 nM
COCCNC(=O)c1cc2cn(CC3CN(C(=O)c4cc(F)cc(F)c4)C3)nc2cc1C [Example 179, 2-{[1-(3,5-Difluorobenzoyl)azetidin-3-yl]methyl}-N-(2-methoxyethyl)-6-methyl-2H-indazol-5-carboxamide]	x (x: 1-10)	x (x: 1-10)	2610 nM
COC(C)CNC(=O)c1ccc2nn(CC3CN(C(=O)c4ccc(Cl)cc4)C3)cc2c1C (racemic) [Example 138, (+/−)-2-{[1-(4-chlorobenzoyl)azetidin-3-yl]methyl}-N-(2-methoxypropyl)-4-methyl-2H-indazol-5-carboxamide]	xxx (xxx > 100)	xxx (xxx > 100)	160 nM
Cc1c(C(=O)NCCN2CCC(F)(F)C2)ccc2nn(CC3CN(C(=O)c4ccc(Cl)cc4)C3)cc12 [Example 126, 2-{[1-(4-chlorobenzoyl)azetidin-3-yl]methyl}-N-[2-(3,3-difluoropyrrolidin-1-yl)ethyl]-4-methyl-2H-indazol-5-carboxamide]	xxx (xxx > 100)	xxx (xxx > 100)	21.2 nM
COCCNC(=O)c1cc2cn(CC3CN(C(=O)c4ccc(Oc5ccc(C(F)(F)F)cc5)cc4)C3)nc2cc1C [Example 202, N-(2-methoxyethyl)-6-methyl-2-[(1-{4-[4-(trifluoromethyl)phenoxy]benzoyl}-azetidin-3-yl)methyl]-2H-indazol-5-carboxamide]	xxx (xxx > 100)	xxx (xxx > 100)	5.06 nM
Cc1cc2nn(CC3CN(C(=O)c4ccc(Cl)cc4)C3)cc2cc1C(=O)NCCOCC1CC1 [Example 198, 2-{[1-(4-chlorobenzoyl)azetidin-3-yl]methyl}-N-[2-(cyclopropylmethoxy)ethyl]-6-methyl-2H-indazol-5-carboxamide]	xxx (xxx > 100)	xxx (xxx > 100)	153 nM
Cc1c(C(=O)NCC(C)OC2CCC2)ccc2nn(CC3CN(C(=O)c4ccc(Cl)cc4)C3)cc12 (single isomer, unassigned) [Example 156, (R or S)-2-{[1-(4-chlorobenzoyl)azetidin-3-yl]methyl}-N-[2-(cyclobutyloxy)-propyl]-4-methyl-2H-indazol-5-carboxamide]	xx (xx: 10-100)	xx (xx: 10-100)	184 nM
COCCNC(=O)c1ccc2nn(CC3CN(C(=O)c4ccc(Oc5ccc(C(F)(F)F)cc5)cc4)C3)cc2c1C [Example 125, N-(2-methoxyethyl)-4-methyl-2-[(1-{4-[4-(trifluoromethyl)phenoxy]benzoyl}azetidin-3-yl)methyl]-2H-indazol-5-carboxamide]	xxx (xxx > 100)	xxx (xxx > 100)	3.66 nM

The remaining lines, values ahead:

Selectivity hEP2/hEP4 [1]	Selectivity hEP2/hDP (human PGD receptor)	IC50 [2]	SMILES
xxx (xxx > 100)	xxx (xxx > 100)	77.8 nM	Cc1c(C(=O)NCC(F)(F)F)ccc2nn(CC3CCN(C(=O)c4ccc(OC(F)(F)F)cc4)CC3)cc12 [Example 73, 4-methyl-N-(2,2,2-trifluoroethyl)-2-({1-[4-(trifluoromethoxy)benzoyl]piperidin-4-yl}methyl)-2H-indazol-5-carboxamide]
xxx (xxx > 100)	xxx (xxx > 100)	5.84 nM	COCCNC(=O)c1ccc2nn(CC3CCN(C(=O)c4ccc(-c5ccc(Cl)cc5OC)cc4)CC3)cc2c1C [Example 381, 2-({1-[(4′-chloro-2′-methoxybiphenyl-4-yl)carbonyl]piperidin-4-yl}methyl)-N-(2-methoxyethyl)-4-methyl-2H-indazol-5-carboxamide]
xxx (xxx > 100)	xxx (xxx > 100)	8.09 nM	COCCNC(=O)c1ccc2nn(CC3CCN(C(=O)c4ccc(C5CC5)cc4)CC3)cc2c1OC(F)F [Example 228, 2-{[1-(4-cyclopropylbenzoyl)piperidin-4-yl]methyl}-4-(difluoromethoxy)-N-(2-methoxyethyl)-2H-indazol-5-carboxamide]
xxx (xxx > 100)	xxx (xxx > 100)	31 nM	O=C(NCCOCC1CC1)c1ccc2nn(CC3CCN(C(=O)c4ccc(-c5ccc(F)cc5)cc4)CC3)cc2c1OCC(F)(F)F [Example 237, N-[2-(cyclopropylmethoxy)ethyl]-2-({1-[(4′-fluorobiphenyl-4-yl)carbonyl]piperidin-4-yl}methyl)-4-(2,2,2-trifluoroethoxy)-2H-indazol-5-carboxamide]
xxx (xxx > 100)	xxx (xxx > 100)	120 nM	Cc1c(C(=O)NCC(F)(F)F)ccc2nn(CC3CCN(C(=O)c4ccc(Cl)cc4)CC3)cc12 [Example 72, 2-{[1-(4-chlorobenzoyl)piperidin-4-yl]methyl}-4-methyl-N-(2,2,2-trifluoroethyl)-2H-indazol-5-carboxamide]
xxx (xxx > 100)	xxx (xxx > 100)	35.8 nM	COCCNC(=O)c1ccc2nn(CC3CCN(C(=O)c4ccc(OC)cc4)CC3)cc2c1C [Example 21, 2-{[1-(4-methoxy-benzoyl)piperidin-4-yl]methyl}-N-(2-methoxyethyl)-4-methyl-2H-indazol-5-carboxamide]
xxx (xxx > 100)	xxx (xxx > 100)	6.46 nM	Cc1c(C(=O)NCCOC(F)(F)F)ccc2nn(CC3CCN(C(=O)c4ccc(Oc5ccc(F)cc5)cc4)CC3)cc12 [Example 108, 2-({1-[4-(4-fluoro-phenoxy)benzoyl]-piperidin-4-yl}methyl)-4-methyl-N-[2-(tri-fluoromethoxy)ethyl]-2H-indazol-5-carboxamide]
xxx (xxx > 100)	xxx (xxx > 100)	44.2 nM	Cc1c(C(=O)NCCS(C)(=O)=O)ccc2nn(CC3CCN(C(=O)c4ccc(Cl)cc4)CC3)cc12 [Example 244, 2-{[1-(4-chlorobenzoyl)piperidin-4-yl]methyl}-N-(2-mesylethyl)-4-methyl-2H-indazol-5-carboxamide]
xxx (xxx > 100)	xxx (xxx > 100)	47.7 nM	COCCNC(=O)c1ccc2nn(CC3CCN(C(=O)c4ccc(-c5ccc(F)cc5)cc4)CC3)cc2c1OCC(F)(F)F [Example 234, 2-({1-[(4′-fluorobiphenyl-4-yl)carbonyl]piperidin-4-yl}methyl)-N-(2-methoxy-ethyl)-4-(2,2,2-trifluoroethoxy)-2H-indazol-5-carboxamide]
